Results published in PMC9736275 (International Journal of Molecular Sciences, 2022).

Molecular target: T1, ATA-Gze (Fusarium graminearum, UniProt I1RDQ2)
T1 construct: gene FGRAMPH1_01T04291
T1 sequence (I1RDQ2 1-325): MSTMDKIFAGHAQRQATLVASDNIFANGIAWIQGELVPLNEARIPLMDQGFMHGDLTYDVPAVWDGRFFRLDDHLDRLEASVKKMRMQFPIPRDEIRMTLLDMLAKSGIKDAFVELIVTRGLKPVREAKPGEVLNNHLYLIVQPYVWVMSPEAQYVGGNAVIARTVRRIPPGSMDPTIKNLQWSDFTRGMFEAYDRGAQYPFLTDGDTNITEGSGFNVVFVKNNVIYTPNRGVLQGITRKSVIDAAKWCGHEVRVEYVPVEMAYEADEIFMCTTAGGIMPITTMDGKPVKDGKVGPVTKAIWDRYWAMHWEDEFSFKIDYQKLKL

`C[C@@H](N)c1ccccc1` [(R)-1-phenylethylamine] was tested, and the Km was “The kinetic parameters are shown in Table S3 and Figure S1”.
